Measurements: US8722868B2, “Glycosyltransferase, novel glycosyltransferase gene, and novel sugar donor compound” (National University Corporation Tokyo University of …, priority 2009, dated 2014)

Target: T1, delphinium-derived glycosyltransferase (SEQ ID NO: 3), recombinant (Delphinium grandiflorum, UniProt E3W9M3)
T1 construct: made in house; host or cells: Escherichia coli JM109 (crude lysate supernatant)
T1 sequence (E3W9M3 29-505 limits assumed): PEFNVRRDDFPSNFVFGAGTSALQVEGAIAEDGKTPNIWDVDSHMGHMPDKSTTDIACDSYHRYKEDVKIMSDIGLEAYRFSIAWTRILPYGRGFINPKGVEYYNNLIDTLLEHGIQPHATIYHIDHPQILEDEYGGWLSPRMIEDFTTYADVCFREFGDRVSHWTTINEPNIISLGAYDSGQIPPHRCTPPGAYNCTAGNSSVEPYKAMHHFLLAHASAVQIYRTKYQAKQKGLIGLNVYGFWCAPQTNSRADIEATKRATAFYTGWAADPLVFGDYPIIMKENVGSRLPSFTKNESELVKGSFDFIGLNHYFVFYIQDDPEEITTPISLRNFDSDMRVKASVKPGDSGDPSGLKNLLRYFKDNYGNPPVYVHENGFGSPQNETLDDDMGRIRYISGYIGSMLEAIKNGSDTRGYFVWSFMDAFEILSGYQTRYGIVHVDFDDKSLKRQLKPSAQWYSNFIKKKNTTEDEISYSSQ
Experiment: Glycosyl transfer reaction with delphinium-derived glycosyltransferase gene expressed in Escherichia coli
Assay type: biochemical, delphinium (Delphinium grandiflorum L.)
Conditions: recombinant enzyme from E. coli, cyanidin 3-O-β-glucoside as sugar receptor
Protocol: PCR was performed using a sense primer (“ATGCCCGAATTTAATGTCAG” (SEQ ID NO: 19)) designed so as to add a methionine residue for the initiation of translation to a sequence from which 28 amino acid residues at the N-terminus predicted as corresponding to vacuolar transfer signals of DgVA7GT had been removed and an antisense primer (“CTG TGA AGA GTA CGA TAT C” (SEQ ID NO: 20)) designed so as to lack a stop codon. The PCR product was ligated to a pTrcHis2-TOPO vector (Invitrogen) using a pTrcHis2-TOPO TA expression Kit (Invitrogen), followed by transformation of the Escherichia coli JM109 strain. DNA was extracted from the transformed Escherichia coli and the DNA nucleotide sequence was analyzed in the above manner. Accordingly, the direction of cDNA introduction and the nonoccurrence of a PCR-induced nucleotide substitution were confirmed.
The transformed Escherichia coli was seeded on an LB medium containing […] ampicillin (5 ml), followed by shake culture at 30° C. for 4 hours. Then, IPTG was added thereto to result in 1 mM, followed by shake culture at 16° C. for 2 hours. The cultured Escherichia coli was harvested via centrifugation at 1,800×g. The medium was removed therefrom. A 0.1 M citric acid buffer (pH 5.6) (150 μl) was added thereto, followed by sufficient mixing. […]

## COc1cc(C(=O)OC2OC(CO)C(O)C(O)C2O)ccc1O (centres unmarked)
  Sugar donor function with recombinant delphinium-derived glycosyltransferase (reaction product): capable of transferring glucose to the 7 position of the anthocyanin skeleton using vanillyl glucose as a sugar donor

## O=C(OC1OC(CO)C(O)C(O)C1O)c1ccc(O)cc1 (stereo not drawn) [1-O-β-p-hydroxybenzoyl glucose]
  Sugar donor function with recombinant delphinium-derived glycosyltransferase (reaction product): cyanidin 3,7-diglucoside formed as a result of transfer of glucose to a hydroxyl group at the 7 position of cyanidin 3-glucoside
